Measured values published in ChEMBL document CHEMBL1201862, “PubChem BioAssay data set” (2004).
The source made the active and inactive calls.

Experiments:
[1] = Luminescence Cell-Based Dose Response HTS to Identify Inhibitors of 5'UTR Stem-Loop Driven Prion Protein mRNA Translation in H4 Neuroglioblastoma Cells. [Related pubchem assays: 1827 (Project Summary), 1813 (Primary HTS)]; assay type: functional
[2] = luciferase reporter signal suppression in cells – H4 neuroglioma cells, luminescence, dose response (AID 1990); assay type: functional, cell-based
Exodeoxyribonuclease V = molecular target: T1, Exodeoxyribonuclease V (Escherichia coli (strain K12), UniProt P04993+P07648+P08394); assay: RecBCD inhibition via phage-restricted bacterial growth – absorbance, V66 E. coli, mutant T4 phage, counter-screen for AddAB inhibitor project, dose response (AID 492957); assay type: functional, cell-based, Escherichia coli str. K-12 substr. MG1655
T1 sequence (P04993 whole entry): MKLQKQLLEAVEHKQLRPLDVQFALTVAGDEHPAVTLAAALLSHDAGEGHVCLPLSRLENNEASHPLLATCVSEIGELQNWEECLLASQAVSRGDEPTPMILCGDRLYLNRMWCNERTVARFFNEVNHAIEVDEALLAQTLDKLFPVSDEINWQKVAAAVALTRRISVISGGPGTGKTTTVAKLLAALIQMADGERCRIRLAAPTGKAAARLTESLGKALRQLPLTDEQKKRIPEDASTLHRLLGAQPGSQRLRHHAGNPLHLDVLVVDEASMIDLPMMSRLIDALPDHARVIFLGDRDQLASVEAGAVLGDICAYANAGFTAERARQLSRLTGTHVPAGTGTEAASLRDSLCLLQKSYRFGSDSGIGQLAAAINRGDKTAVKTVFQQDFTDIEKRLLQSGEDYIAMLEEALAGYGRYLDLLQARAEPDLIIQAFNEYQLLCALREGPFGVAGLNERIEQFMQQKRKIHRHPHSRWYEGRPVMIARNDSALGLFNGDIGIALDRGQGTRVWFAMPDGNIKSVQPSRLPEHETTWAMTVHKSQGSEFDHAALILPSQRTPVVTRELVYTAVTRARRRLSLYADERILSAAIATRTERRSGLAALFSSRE
T1 sequence (P07648 whole entry): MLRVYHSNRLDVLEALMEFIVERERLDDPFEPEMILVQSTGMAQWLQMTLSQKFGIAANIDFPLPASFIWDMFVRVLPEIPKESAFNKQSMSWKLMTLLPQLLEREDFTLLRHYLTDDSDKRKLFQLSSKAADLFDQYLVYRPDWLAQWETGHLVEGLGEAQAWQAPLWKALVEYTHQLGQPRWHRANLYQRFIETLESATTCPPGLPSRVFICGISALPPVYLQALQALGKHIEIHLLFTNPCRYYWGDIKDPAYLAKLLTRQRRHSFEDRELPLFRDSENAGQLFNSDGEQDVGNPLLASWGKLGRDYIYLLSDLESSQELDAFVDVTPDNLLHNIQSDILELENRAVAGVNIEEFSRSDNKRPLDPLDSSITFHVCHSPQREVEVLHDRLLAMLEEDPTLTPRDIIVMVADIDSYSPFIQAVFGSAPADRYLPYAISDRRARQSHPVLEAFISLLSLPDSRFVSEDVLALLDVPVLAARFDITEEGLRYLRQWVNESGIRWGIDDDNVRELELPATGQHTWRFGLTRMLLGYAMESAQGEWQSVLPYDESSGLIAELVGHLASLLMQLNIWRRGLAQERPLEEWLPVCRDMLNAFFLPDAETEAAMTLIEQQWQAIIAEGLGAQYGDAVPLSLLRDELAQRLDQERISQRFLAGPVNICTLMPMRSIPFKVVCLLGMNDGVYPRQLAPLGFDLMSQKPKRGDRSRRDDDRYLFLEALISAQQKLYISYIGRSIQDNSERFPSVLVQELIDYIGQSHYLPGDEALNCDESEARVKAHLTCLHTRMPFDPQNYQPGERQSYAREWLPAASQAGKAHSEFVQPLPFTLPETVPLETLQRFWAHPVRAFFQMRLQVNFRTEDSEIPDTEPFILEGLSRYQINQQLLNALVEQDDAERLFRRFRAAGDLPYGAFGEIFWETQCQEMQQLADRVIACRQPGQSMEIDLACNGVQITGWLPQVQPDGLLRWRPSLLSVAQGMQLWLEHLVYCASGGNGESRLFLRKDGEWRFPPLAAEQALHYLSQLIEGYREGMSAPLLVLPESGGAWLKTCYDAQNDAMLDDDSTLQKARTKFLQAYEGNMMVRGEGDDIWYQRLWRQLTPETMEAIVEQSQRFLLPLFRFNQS
T1 sequence (P08394 whole entry): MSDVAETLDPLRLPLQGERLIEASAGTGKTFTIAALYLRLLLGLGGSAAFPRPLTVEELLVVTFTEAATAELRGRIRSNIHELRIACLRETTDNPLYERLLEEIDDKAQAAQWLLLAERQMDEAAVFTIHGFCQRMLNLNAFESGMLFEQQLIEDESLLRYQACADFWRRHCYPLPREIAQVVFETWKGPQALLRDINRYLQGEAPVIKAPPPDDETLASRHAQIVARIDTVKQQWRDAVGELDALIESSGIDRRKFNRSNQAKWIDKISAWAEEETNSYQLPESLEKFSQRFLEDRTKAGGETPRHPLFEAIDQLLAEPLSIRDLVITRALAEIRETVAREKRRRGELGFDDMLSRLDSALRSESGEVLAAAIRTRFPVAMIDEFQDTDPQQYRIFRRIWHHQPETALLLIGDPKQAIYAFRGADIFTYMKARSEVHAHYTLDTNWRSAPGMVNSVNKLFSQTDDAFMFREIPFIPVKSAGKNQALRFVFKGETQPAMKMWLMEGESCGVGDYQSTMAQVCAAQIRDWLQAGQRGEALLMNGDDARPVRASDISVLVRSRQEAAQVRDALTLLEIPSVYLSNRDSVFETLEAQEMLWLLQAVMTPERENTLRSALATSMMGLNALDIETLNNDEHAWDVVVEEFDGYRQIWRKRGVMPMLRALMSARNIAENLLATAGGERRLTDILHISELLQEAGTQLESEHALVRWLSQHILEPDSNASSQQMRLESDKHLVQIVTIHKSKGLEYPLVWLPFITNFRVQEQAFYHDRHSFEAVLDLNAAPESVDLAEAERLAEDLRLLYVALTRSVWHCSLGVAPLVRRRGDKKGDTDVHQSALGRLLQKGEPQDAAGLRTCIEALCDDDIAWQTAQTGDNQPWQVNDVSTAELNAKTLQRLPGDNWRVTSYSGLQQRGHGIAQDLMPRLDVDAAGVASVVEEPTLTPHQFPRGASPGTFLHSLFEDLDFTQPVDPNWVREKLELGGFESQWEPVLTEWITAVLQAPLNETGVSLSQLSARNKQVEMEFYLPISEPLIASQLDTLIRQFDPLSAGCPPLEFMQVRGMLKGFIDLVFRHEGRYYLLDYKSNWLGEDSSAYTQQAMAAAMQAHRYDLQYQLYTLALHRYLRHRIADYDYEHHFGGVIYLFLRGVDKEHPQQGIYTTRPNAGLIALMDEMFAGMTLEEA

H9c2 = assay: cells; assay type: functional, cell-based; details: Rattus norvegicus, H9c2, Myocardium;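 note: confirmatory concentration-response retest of ultra-high-throughput screening hits for modulation of myocardial damage; cell death induced by hydrogen peroxide oxidative stress; compound pretreatment for 60 min then peroxide exposure for 2 h; potency is for protecting the cells against peroxide damage rather than for killing them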
[3] = alpha-synuclein stem-loop luciferase translation blockers – H4 neuroglioma cells, luminescence, confirmation (AID 1988); assay type: functional, cell-based
Caspase-3 = molecular target: T2, Caspase-3 (Homo sapiens, UniProt P42574); assay: activation of caspase-3 zymogen – biochemical, absorbance, dose response (AID 489014)
T2 sequence (P42574 whole entry): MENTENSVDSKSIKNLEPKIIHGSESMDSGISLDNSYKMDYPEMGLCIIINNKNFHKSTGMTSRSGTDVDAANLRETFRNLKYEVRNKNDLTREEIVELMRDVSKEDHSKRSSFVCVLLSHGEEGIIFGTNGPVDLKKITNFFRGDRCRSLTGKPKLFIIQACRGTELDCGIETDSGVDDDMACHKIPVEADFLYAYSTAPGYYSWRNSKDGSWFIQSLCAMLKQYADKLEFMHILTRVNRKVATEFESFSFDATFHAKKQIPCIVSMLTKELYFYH

Caspase-7 = Caspase-7 (Homo sapiens, UniProt P55210); assay: activation of caspase-7 zymogen – biochemical, absorbance, counter-screen for procaspase-3 activator project, dose response (AID 489013)
Sequence of Caspase-7 (P55210 24-198 limits assumed): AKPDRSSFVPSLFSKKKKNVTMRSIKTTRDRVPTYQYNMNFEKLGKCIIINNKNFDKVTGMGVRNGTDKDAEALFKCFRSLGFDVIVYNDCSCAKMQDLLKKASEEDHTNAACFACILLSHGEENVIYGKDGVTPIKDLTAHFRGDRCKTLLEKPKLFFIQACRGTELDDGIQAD
Sequence of Caspase-7 (P55210 207-303 limits assumed): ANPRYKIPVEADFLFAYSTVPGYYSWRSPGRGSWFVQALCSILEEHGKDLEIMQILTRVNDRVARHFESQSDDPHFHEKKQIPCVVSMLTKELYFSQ

INS1 = assay: INS-1E survival protection against cytokine death – cell-based, luminescence, retest, dose response (AID 449756); assay type: functional; details: Rattus norvegicus;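 note: cell death triggered by IL-1 beta plus TNF-alpha plus IFN-gamma mixture; protective hits raise ATP signal compared with cytokine alone wells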
[4] = Counterscreen for AddAB inhibitors: absorbance-based bacterial cell-based high throughput dose response assay for inhibitors of bacterial viability. [Related pubchem assays (depositor defined):AID435030, AID449728, AID449731, AID488942, AID488955, AID488956]; assay type: functional
[5] = molecular target: Nucleotide-binding oligomerization domain-containing protein 2 (Homo sapiens, UniProt Q9HC29); assay: inhibition of NOD2-driven NF-kB reporter – cell-based, luminescence, uHTS, HEK293 (AID 1566); assay type: functional
Sequence of Nucleotide-binding oligomerization domain-containing protein 2 (Q9HC29 whole entry, the tested form may be a part): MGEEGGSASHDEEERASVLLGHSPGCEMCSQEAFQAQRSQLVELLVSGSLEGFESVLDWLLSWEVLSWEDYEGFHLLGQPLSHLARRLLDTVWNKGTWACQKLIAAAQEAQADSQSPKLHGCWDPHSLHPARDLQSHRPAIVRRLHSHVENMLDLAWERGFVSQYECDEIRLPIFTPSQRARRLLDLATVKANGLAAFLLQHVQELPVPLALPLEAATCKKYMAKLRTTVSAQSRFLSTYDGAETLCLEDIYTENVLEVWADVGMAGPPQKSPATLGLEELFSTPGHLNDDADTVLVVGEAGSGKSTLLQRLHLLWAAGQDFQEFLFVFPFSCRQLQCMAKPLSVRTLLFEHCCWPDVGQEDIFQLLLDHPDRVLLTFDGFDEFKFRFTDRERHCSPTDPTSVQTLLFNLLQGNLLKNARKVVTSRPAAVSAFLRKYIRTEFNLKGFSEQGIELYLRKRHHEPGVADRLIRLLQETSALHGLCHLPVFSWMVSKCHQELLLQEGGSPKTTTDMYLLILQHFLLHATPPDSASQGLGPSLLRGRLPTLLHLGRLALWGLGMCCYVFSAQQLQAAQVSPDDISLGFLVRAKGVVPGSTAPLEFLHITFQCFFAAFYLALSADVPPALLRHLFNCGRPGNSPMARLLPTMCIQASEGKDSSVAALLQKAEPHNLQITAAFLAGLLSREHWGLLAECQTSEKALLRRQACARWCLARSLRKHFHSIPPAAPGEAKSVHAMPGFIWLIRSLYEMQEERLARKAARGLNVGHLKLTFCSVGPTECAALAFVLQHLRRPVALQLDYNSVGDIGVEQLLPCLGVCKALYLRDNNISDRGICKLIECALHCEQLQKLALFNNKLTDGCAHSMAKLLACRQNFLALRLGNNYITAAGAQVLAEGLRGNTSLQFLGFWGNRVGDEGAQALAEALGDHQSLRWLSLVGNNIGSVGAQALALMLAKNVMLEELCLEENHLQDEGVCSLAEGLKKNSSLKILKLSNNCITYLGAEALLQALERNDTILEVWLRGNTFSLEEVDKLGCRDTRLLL

HEK293 [6] = assay: cells; assay type: functional, cell-based; details: Homo sapiens
HEK293 [7] = assay: cells; assay type: functional, cell-based; details: Homo sapiens; remark: listed apart in the source
HEK293 [8] = assay: cells; assay type: functional, cell-based; details: Homo sapiens; remark: listed apart in the source
[9] = molecular target: T3, Heat shock factor protein 1 (Mus musculus, UniProt P38532); assay: enhancement of HSF1-driven luciferase signal – cell-based, NIH3T3, luminescence, dose retest, confirmation (AID 435004); assay type: functional;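 note: stress induced by proteasome inhibitor MG132 added 30 min after compound; luciferase reporter driven by HSF1 response element in NIH3T3 cells; actives raise luminescence as potentiators of the MG132 stress response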
T3 sequence (P38532 whole entry): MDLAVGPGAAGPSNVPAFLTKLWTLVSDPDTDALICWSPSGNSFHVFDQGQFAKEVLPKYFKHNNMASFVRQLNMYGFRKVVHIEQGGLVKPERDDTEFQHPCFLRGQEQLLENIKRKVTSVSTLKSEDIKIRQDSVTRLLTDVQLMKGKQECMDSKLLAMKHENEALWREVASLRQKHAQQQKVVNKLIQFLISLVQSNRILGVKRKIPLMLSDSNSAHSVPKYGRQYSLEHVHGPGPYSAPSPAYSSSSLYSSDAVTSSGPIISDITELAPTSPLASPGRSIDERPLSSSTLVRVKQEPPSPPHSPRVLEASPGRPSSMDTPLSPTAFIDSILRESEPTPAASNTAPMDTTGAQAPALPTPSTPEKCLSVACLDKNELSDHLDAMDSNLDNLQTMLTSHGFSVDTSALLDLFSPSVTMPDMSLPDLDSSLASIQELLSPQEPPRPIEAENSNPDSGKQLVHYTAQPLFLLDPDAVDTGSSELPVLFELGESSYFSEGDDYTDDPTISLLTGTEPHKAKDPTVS

HEK293 [10] = assay: inhibition of NOD1-driven NF-kB reporter – cell-based, luminescence, uHTS, primary screen (AID 1578); assay type: functional; details: Homo sapiens
HEK293 [11] = assay: NOD2 signaling inhibitors in MDP-stimulated cells, cell-based, uHTS, luminescence (AID 2001); assay type: functional; details: Homo sapiens
[12] = molecular target: T4, Alkaline phosphatase, tissue-nonspecific isozyme (Homo sapiens, UniProt P05186); assay: potency against alkaline phosphatase TNAP – biochemical, luminescent, dose response, SAR follow-up (AID 1056)
T4 sequence (P05186 whole entry): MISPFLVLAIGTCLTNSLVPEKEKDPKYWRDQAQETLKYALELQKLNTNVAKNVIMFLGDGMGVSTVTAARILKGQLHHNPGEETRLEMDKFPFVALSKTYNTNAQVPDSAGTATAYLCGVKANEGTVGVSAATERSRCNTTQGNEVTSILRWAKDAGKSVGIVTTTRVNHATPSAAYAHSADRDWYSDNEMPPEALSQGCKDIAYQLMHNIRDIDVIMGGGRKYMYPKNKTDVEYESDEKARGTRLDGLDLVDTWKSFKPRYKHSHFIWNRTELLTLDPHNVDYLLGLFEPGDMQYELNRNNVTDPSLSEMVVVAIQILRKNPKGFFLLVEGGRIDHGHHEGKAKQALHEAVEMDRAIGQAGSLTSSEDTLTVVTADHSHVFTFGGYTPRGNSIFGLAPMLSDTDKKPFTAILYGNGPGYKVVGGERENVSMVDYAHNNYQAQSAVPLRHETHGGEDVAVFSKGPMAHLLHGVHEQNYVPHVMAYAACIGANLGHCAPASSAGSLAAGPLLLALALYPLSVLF

[13] = molecular target: Glyceraldehyde-3-phosphate dehydrogenase (Homo sapiens, UniProt P04406)
Sequence of Glyceraldehyde-3-phosphate dehydrogenase (P04406 whole entry): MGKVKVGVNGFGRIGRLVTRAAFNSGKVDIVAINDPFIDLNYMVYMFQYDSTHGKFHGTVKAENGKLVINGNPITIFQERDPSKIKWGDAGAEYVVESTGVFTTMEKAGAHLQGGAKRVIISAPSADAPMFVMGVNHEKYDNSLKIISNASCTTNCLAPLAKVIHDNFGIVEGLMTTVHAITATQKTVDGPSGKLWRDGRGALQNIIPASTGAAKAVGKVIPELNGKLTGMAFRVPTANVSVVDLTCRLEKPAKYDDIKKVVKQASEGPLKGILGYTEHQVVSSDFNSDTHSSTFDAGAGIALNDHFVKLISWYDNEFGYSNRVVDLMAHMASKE

[14] = molecular target: Alkaline phosphatase, placental type (Homo sapiens, UniProt P05187); assay: human placental alkaline phosphatase inhibition – biochemical, luminescence, confirmation (AID 1512); assay type: functional
Sequence of Alkaline phosphatase, placental type (P05187 whole entry): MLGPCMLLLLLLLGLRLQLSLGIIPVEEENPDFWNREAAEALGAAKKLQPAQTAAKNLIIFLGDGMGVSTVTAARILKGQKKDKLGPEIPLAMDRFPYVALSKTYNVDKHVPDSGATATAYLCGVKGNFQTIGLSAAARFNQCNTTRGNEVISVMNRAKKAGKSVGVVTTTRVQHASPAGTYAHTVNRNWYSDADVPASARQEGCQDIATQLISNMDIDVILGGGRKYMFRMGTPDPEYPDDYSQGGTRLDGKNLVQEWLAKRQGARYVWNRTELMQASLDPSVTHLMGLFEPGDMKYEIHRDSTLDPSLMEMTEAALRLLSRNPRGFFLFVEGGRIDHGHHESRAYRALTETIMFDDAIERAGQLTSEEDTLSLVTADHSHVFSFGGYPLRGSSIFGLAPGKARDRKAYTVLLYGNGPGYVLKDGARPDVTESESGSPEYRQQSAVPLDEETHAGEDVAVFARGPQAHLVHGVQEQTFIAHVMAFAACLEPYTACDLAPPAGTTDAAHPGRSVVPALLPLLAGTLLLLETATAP

CCCNC(=O)c1ccc2c(O)c(O)c(-c3ccc(C)cc3)nc2c1
EC50 [1]: > 120 µM (not active) | EC50 [2]: 9.71 µM (active) | IC50 (Exodeoxyribonuclease V): > 119 µM (inactive) | IC50 (H9c2): > 79 µM (inactive) | EC50 [3]: 8.86 µM (active) | EC50 (Caspase-3): > 85.3 µM (inactive) | EC50 (Caspase-7): > 85.3 µM (inactive) | AC50 (INS1): 7.24 µM (active) | IC50 [4]: > 119 µM (inactive)

CCc1ccc(CN(C)C(=O)CCc2nc3ccccc3n(-c3ccc(OC)cc3)c2=O)cc1
EC50 [5]: 16 µM (active) | IC50 (HEK293 [6]): > 20 µM (inactive) | IC50 (HEK293 [7]): > 20 µM (inactive) | IC50 (HEK293 [8]): > 20 µM (inactive) | EC50 [9]: > 260 µM (inactive) | EC50 (HEK293 [10]): 12.7 µM (active) | IC50 (HEK293 [11]): 5.96 µM (active)

COc1ccc(Cc2nc(N)nn2-c2ccccc2)cc1
IC50 [12]: > 100 µM (inactive) | IC50 [13]: > 100 µM (not active) | IC50 [14]: > 100 µM (inactive)

Cc1cc(C)nc(SCC(=O)c2ccc3c(c2)OCO3)n1
IC50 [12]: > 100 µM (inactive) | IC50 [14]: > 100 µM (inactive)
